Remaining activity data for five compounds are collected here from paper PMC5761851, “Application of a phenotypic drug discovery strategy to identify biological and chemical starting points for inhibition of TSLP production in lung epithelial cells” (PLoS ONE, 2018).

What all share (test): kinase selectivity panel
Common to all, as to format: biochemical

In one assay the target is T1, FAK (Homo sapiens, UniProt Q05397).
T1 construct: purchased Eurofins Pharma Discovery Services (KinaseProfiler; Cerep BioPrint panel)
The conditions noted are these: read-out: percentage of control activity (POC), FAK. The method, boiled down: (§1)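 Single-point screen: 10 μM, duplicate, 125-kinase panel; follow-up IC50 from 9-point titration in duplicate for chosen hits.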

A further assay addresses T2, IGF-1R (Homo sapiens, UniProt P08069).
T2 construct: purchased Eurofins Pharma Discovery Services (KinaseProfiler; Cerep BioPrint panel)
The conditions noted are these: read-out: percentage of control activity (POC), IGF-1R. The method, boiled down:
as §1

The target in another assay is T3, IKKβ (Homo sapiens, UniProt O14920).
T3 construct: purchased Eurofins Pharma Discovery Services (KinaseProfiler; Cerep BioPrint panel)
T3 sequence (O14920 1-756): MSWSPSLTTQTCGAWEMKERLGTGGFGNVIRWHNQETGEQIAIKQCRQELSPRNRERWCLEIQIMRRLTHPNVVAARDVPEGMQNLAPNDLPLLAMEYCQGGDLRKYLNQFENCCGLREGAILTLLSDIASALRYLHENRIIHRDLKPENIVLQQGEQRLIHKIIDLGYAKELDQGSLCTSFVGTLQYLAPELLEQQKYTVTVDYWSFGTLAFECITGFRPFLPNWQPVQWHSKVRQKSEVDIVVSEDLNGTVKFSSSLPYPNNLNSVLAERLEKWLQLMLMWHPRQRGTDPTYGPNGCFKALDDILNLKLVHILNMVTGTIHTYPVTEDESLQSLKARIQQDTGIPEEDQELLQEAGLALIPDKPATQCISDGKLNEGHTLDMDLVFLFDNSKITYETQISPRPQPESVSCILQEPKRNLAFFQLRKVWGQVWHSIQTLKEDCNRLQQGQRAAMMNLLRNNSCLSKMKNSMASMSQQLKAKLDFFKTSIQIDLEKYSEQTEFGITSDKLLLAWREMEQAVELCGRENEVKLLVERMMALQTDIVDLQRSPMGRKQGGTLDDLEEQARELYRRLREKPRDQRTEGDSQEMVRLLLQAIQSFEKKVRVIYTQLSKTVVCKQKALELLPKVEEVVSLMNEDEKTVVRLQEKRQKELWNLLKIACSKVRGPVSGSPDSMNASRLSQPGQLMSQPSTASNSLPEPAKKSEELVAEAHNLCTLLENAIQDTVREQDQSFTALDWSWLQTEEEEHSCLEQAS
The conditions noted are these: read-out: percentage of control activity (POC), IKKβ. The method, boiled down: as §1

In a further assay the target is T4, IRAK1 (Homo sapiens, UniProt P51617).
T4 construct: purchased Eurofins Pharma Discovery Services (KinaseProfiler; Cerep BioPrint panel)
The conditions noted are these: read-out: percentage of control activity (POC), IRAK1. The method, boiled down: as §1

The next assay concerns the target T5, JAK3 (Homo sapiens, UniProt P52333).
T5 construct: purchased Eurofins Pharma Discovery Services (KinaseProfiler; Cerep BioPrint panel)
T5 sequence (P52333 1-1124): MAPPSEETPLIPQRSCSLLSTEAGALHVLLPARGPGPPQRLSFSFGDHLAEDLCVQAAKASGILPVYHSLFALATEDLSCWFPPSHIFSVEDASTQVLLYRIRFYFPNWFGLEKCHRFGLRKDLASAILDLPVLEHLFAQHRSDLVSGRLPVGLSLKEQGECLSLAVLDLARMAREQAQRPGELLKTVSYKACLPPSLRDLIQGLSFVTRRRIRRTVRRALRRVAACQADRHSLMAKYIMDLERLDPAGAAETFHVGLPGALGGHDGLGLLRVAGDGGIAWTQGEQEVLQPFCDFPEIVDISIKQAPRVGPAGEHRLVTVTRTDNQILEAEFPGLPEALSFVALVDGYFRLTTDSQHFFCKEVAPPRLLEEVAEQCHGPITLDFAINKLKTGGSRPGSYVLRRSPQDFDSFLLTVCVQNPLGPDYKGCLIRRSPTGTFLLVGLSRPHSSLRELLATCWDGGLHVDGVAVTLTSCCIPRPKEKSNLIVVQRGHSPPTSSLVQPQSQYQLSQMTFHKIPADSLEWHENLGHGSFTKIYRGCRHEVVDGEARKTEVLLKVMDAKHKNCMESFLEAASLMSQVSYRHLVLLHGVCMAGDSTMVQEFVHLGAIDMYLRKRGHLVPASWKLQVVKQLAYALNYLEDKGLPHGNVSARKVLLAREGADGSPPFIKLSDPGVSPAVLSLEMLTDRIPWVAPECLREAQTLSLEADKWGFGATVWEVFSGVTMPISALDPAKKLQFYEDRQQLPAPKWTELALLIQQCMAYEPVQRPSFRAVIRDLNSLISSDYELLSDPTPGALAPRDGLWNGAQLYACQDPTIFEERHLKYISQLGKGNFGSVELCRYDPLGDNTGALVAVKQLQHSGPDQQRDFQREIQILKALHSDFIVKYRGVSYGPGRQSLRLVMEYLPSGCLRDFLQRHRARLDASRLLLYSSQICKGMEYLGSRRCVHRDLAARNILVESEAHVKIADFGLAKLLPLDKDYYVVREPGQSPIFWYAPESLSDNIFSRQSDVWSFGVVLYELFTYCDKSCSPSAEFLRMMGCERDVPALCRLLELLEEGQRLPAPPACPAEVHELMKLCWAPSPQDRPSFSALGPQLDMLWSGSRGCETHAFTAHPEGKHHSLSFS
The conditions noted are these: read-out: percentage of control activity (POC), JAK3. The essentials: as §1

The next assay deals with T6, Rsk3 (Homo sapiens, UniProt Q15349).
T6 construct: purchased Eurofins Pharma Discovery Services (KinaseProfiler; Cerep BioPrint panel)
The conditions noted are these: read-out: percentage of control activity (POC), Rsk3. The method, boiled down:
as §1

T6 sequence (Q15349 whole entry): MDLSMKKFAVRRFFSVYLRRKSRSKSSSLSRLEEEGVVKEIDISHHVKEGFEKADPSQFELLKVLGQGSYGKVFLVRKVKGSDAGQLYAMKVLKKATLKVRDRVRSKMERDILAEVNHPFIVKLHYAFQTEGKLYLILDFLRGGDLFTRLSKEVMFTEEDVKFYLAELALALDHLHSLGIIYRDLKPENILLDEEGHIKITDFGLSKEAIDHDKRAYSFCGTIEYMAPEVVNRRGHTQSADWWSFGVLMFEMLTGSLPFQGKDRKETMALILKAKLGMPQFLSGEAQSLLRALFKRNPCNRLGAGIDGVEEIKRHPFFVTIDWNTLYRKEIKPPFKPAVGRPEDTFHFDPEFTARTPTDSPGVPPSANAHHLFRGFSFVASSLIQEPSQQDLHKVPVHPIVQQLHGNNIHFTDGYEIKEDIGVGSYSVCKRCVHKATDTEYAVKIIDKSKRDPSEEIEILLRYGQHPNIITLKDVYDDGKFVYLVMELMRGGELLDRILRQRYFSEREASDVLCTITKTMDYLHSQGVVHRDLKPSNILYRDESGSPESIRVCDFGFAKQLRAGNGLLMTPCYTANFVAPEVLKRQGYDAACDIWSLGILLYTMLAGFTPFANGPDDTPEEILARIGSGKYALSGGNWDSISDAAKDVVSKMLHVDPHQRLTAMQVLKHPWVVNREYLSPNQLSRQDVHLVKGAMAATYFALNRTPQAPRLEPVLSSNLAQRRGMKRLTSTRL
T4 sequence (P51617 whole entry): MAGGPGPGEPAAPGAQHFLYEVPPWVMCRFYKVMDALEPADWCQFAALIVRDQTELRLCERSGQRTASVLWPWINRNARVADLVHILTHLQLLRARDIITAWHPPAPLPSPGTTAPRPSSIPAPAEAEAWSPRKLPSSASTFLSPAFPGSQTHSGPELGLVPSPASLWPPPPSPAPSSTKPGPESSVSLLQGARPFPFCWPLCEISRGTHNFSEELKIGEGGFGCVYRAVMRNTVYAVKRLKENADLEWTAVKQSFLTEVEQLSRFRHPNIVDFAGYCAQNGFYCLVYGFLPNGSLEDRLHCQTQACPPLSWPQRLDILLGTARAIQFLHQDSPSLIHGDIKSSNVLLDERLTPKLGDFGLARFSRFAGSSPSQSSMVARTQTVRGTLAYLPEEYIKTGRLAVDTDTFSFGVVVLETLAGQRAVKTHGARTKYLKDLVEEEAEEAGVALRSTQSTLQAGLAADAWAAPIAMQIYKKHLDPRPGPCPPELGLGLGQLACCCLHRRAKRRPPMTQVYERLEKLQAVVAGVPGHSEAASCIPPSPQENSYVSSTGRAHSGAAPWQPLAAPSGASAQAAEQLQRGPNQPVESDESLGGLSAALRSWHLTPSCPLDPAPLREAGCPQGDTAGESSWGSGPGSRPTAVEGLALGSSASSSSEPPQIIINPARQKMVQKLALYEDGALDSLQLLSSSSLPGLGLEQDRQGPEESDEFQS
T1 sequence (Q05397 whole entry): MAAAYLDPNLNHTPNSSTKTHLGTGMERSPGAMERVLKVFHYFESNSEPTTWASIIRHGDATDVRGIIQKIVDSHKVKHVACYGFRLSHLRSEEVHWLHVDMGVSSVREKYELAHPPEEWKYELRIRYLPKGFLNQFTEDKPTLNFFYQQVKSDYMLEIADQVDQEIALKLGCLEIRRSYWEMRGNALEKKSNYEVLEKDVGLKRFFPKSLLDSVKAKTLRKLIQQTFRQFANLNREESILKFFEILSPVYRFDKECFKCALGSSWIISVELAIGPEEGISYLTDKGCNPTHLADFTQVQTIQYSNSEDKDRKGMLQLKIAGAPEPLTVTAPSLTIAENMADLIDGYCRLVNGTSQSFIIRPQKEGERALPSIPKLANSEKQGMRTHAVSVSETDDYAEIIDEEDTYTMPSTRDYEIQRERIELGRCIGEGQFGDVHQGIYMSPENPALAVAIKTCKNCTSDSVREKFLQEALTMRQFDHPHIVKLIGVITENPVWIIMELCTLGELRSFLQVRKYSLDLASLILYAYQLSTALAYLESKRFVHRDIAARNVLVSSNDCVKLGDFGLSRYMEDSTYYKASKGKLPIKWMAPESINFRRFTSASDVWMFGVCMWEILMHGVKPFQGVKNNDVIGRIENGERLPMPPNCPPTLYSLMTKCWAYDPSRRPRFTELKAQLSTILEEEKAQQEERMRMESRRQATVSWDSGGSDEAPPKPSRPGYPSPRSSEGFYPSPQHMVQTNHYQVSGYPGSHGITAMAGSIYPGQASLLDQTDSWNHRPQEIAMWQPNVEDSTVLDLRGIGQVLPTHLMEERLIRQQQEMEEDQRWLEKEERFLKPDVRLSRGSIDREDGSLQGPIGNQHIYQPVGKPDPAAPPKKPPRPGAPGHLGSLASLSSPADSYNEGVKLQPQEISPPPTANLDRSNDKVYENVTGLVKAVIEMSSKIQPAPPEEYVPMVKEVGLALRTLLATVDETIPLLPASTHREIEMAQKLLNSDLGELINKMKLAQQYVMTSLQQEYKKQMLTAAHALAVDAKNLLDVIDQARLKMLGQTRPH
T2 sequence (P08069 31-1367): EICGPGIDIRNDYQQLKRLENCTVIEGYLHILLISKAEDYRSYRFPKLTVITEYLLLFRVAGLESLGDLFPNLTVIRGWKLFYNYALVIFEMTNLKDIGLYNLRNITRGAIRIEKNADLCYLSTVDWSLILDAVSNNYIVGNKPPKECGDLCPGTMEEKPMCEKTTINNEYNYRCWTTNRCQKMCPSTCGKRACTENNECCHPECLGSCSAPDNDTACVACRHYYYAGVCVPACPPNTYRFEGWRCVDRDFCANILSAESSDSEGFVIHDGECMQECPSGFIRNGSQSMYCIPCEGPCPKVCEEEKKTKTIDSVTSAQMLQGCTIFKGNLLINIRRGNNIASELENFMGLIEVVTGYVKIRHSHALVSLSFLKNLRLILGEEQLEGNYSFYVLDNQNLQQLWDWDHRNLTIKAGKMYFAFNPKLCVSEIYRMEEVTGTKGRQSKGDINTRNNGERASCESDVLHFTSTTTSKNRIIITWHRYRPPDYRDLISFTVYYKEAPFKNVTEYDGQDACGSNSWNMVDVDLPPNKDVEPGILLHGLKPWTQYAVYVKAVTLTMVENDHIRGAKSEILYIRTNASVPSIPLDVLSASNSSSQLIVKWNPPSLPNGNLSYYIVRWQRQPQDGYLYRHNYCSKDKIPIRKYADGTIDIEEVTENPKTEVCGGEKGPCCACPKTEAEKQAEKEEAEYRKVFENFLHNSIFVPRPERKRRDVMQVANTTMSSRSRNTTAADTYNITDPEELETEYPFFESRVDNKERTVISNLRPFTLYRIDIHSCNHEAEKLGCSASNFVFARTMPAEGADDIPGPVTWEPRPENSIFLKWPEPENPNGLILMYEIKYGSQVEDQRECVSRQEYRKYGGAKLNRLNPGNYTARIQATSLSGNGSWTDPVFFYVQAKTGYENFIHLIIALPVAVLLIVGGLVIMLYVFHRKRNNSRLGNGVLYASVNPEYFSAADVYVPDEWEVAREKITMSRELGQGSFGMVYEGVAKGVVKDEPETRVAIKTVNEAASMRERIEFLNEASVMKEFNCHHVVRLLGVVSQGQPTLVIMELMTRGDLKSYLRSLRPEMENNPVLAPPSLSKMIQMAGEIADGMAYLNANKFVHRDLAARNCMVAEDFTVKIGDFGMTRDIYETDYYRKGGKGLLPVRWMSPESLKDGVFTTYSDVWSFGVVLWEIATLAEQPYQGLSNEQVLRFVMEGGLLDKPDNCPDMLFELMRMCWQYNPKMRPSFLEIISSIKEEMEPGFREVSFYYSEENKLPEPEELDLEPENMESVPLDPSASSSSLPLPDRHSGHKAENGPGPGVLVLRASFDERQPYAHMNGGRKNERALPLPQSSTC

Take `CC(C)(C)N1CCC(c2cc(-c3ccc(F)cc3Cl)c3cc[n+]([O-])c(-c4c(Cl)cccc4Cl)c3n2)CC1` [compound 2]: the remaining activity at 10 µM was found to be 111% at FAK; 113% at IGF-1R; 102% on IKKβ; 102% at IRAK1; 102% at JAK3; 99% at Rsk3.

Regarding `Cc1ccc(C(=O)NCC2CC2)cc1-c1ccc2c(c1)NC(=O)C21CCCC1` [compound 3], the remaining activity at 10 µM on FAK was found to be 99%; on IGF-1R, 89%; at IKKβ it was 107%; at IRAK1 it was 91%; at JAK3 it was 100%; at Rsk3, 102%.

For the compound `Cn1cc(-c2cccc(-c3nc(C(=O)NC4C5CC6CC4CC(O)(C6)C5)c(N)nc3N)c2)cn1` (stereo not drawn) [compound 4], the remaining activity at 10 µM worked out at 99% on FAK; 94% at IGF-1R; 95% at IKKβ; 89% at IRAK1; 89% at JAK3; 75% on Rsk3.

As to `CS(=O)(=O)N1CCN(c2ccc(Nc3ncc(C(N)=O)c(NC4CC4)n3)cc2)CC1` [compound 5], the remaining activity at 10 µM at FAK is 1%; on IGF-1R it was 64%; at IKKβ it was 8%; on IRAK1 it was 20%; at JAK3, -2%; on Rsk3 it was 0%.

With `COc1c(NC(=O)c2ccc(C)c(-c3nnc4c(NCC(C)(C)C)nccn34)c2)cc(C(C)(C)C)cc1NS(C)(=O)=O` [compound 7, reference compound], the remaining activity at 10 µM on FAK is 104%; on IGF-1R, 123%; on IKKβ, 127%; on IRAK1, 95%; at JAK3, 99%; on Rsk3, 110%.
